Test [1] relates to dividing cells (Ki67+) in the sub-granular zone of the dentate gyrus. The test can be described thus: Ki67 cell proliferation in hippocampal dentate gyrus of wild-type and ghsr-/- mice. The format is in vivo. To be noted: i.v. 48 μg/day for 7 days; for Ki67+ cells (cell proliferation) in the DG of adult wild-type mice: vs saline. The procedure:
To further examine the role of ghrelin in enhancing cell proliferation in the SGZ, the effect of peripherally administered ghrelin in both wild-type and ghrelin-receptor null (ghsr^−/−) mice (Zigman et al. J. Clin. Invest (2005)115 (12:3564-72)) was analysed.
Adult growth hormone secretagogue receptor (GHSR)-null mice (8-10 weeks-old) and their wild-type littermates were used. These were derived from crosses between animals that were heterozygous for the GHSR-null allele and that had been backcrossed >10 generations onto a C57BL6/J genetic background. Metabolic aspects of these mice have been published (Davies et al. 2009 Molecular Endocrinology, 23(6), 914-24.).
Ghrelin was administered peripherally via an intravenous osmotic mini-pump at a rate of 1 μl/hour with a total of 48 μg/day to groups of 6 mice. Control groups were given peripheral saline.
After 7 days, mice were killed by cervical dislocation whole brain was removed and immediately snap frozen on dry ice.
(§1) Cell proliferation in the hippocampal dentate gyms was subsequently analysed using a one-in-fifteen series of 10 μm sections (150 μm apart) from each animal. These were stained for Ki67 immunofluorescence and a primary antibody rabbit anti-Ki67 (1:500 Abcam) applied. Immunolabelled cells were counted throughout the rostro-caudal extent of the granule cell layer and quantified.
(§2) Immunolabelled cells were counted bilaterally using a ×40 objective (Zeiss Axioscope) throughout the rostro-caudal extent of the granule cell layer (GCL). Resulting numbers were divided by the number of coronal sections analyzed and multiplied by the distance between each section to obtain an estimate of the number of cells per hippocampus (and divided by 2 to obtain the total per dentate gyms).
All experiments and analyses were performed blind to genotype and treatment.
Statistical analyses were carried out using GraphPad Prizm 6.0 for Mac. Statistical significance was assessed by unpaired two-tailed Student's t-test or one-way ANOVA with Bonferroni's post-hoc test unless described otherwise: *, P<0.05; **, P<0.01; ***, P<0.001.
(§3) To determine whether unacylated-ghrelin (UAG) regulates NSPC plasticity, cell proliferation and immature neurons were quantified in wild-type mice following either peripheral administration of saline or UAG (i.v, 48 μg/day, n=6/group) for 7-days. The method was similar to that described in Example 1.

The test system of test [2] is immature DCX+ neurons within the SGZ. Kind of test: Immature DCX+ neurons in the SGZ of wild-type mice. The format is in vivo. The note with it: i.v. 48 μg/day for 7 days, vs vehicle.
Description: as §1, §2, §3

The test system of a further test is Ghsr. To be noted: cited from earlier work.
The next test deals with adult rat hippocampus. Kind of test: BrdU+ cell proliferation in adult rat hippocampus after 7-day i.v. infusion (FIG. 1A). The format is in vivo. The note with it: 7-day i.v. infusion 80 μg/day; BrdU 50 mg/kg i.p 30 minutes prior to brain collection; vs vehicle.
Test [3] has as its system spatial pattern separation. Kind of test: Spontaneous location recognition (SLR) task, spatial pattern separation. The format is in vivo, rat. To be noted: rats, 10 μg/kg i.p daily days 1-14, tested days 22-26. The procedure: A) Experimental paradigm B) Schematic of Spontaneous location recognition (SLR) task. During a sample phase animals were exposed to 3 identical objections (two were located close together (small separation) or very close together (X-small separation) and the 3rd was further away) for 10 minutes. 24 hours later the rats were exposed to 2 of the objects during the test phase and the time spent exploring each object was measured. Dotted objects indicate the original location during the sample phase. C) Discrimination ratios during the test phase for ‘novel’ conditions in the SLR task. […] D) Representative images of the new adult-born DG neurons (white arrows) co-expressing NeuN^+ and BrdU^+. […] Scale bar=100 μm.
(§4) Adult male Lister-hooded rats (n=12/group) were given daily injections of either saline or ghrelin (10 μg/kg i.p) (days 1-14) and BrdU (50 mg/kg i.p) on days 5-8 prior to analysis of spatial pattern separation using a spontaneous location recognition task (SLR) on days 22-26.
To reduce/avoid the acute LTP-mediated effects on pattern separation the final injection of ghrelin was given 7 days before the start of cognitive testing.

For test [4], the system named is new adult-born DG neurons. The test can be described thus: New adult-born neurons (BrdU+/NeuN+) and neuroblasts (DCX+) in rat DG. In kind it is in vivo. The note with it: rats; for total number of new adult-born neurones (BrdU+/NeuN+) in the DG: 10 μg/kg i.p daily days 1-14, BrdU days 5-8, vs saline. The procedure:
as §4
Animals were anesthetized with sodium pentobarbital and perfused transcardially with 0.9% NaCl solution, followed by 4% paraformaldehyde (PFA) in 0.1M phosphate buffer, pH 7.4. Brains were post-fixed in 4% PFA for 24 h, and cryoprotected in 30% sucrose for 24 h. The brains were then sectioned on a freezing-stage microtome into a 30 μm thick coronal section series. Immunohistochemical staining was performed on free-floating sections.
For detection of BrdU, sections were pre-treated with 2N HCl for 30 mins at 37° C. and washed in 0.1 M borate buffer, pH8.5, for 10 min. Immunofluorescent double-labeling was performed.
Primary antibodies used were: mouse anti-BrdU (1:50 AbD Serotec, UK), goat anti-doublecortin (Santa Cruz Biotechnology, USA), mouse anti-NeuN (Chemicon, Temecula, Calif., USA). Sections were also stained with Hoechst (Invitrogen) and mounted with prolong-gold anti-fade reagent (Invitrogen).
A one-in-twelve series of 30 μm sections (360 μm apart) from each animal was immunohistologically stained (as described in Example 1 above) and analysed by fluorescent and/or confocal microscopy. Immunolabelled cells were counted also as described in Example 1. Only cells with complete/strong BrdU immunoreactivity, oval nuclei, were counted.

The conditions of test [5]: rats; 10 μg/kg i.p; cited from earlier work.

Entries after “also recorded” stand apart in the source; their conditions may differ. Ends that are not written are not given here. * marks the point of attachment. Octanoyl = CCCCCCCC(=O)*

With “UAG: unacylated-ghrelin, the de-acylated form of ghrelin (GSSFLSPEHQRVQQRKESKKPPAKLQPR; Ghrelin-28 unacylated; UniProt Q9UBU3 24-51, looked up)”, the “Ki67+ cells (cell proliferation) in the DG of adult wild-type mice” value in test [1] is “impairments observed in hippocampal cell proliferation; also recorded: reduced the number of dividing cells; also recorded: attenuated hippocampal cell proliferation”. Further, the “number of immature DCX+ neurons within the SGZ” value in test [2] is “impairments; also recorded: reduced; also recorded: significant reduction in the number of immature DCX^+ neurons”. Besides, the “binding or activation of Ghsr” value in the test on Ghsr is on record as “does not bind or activate Ghsr”.

As to “ghrelin: gut hormone, 28 amino acid peptide with octanoyl modification on Ser-3; endogenous ligand of GHS-R 1a (GSS(Octanoyl)FLSPEHQRVQQRKESKKPPAKLQPR; UniProt Q9UBU3 24-51, looked up)”, the “number of BrdU+ cells in adult rat hippocampus” value in the test with adult rat hippocampus is “increased the number of BrdU^+ cells”. Besides, in test [1] (ghrelin-receptor null (ghsr-/-) mice), the “Ki67+ cells (cell proliferation) in the DG of ghsr-/- mice” value is on record as “no corresponding increase was observed; also recorded: inhibited the proliferative effect of ghrelin”. Moreover, the “Ki67+ cells (cell proliferation) in the DG of adult wild-type mice” value in test [1] was “increased Ki67^+ cells”; in test [1] (listed as Ghrelin), “significant increase in cell proliferation”. The “SLR task, discrimination of 'novel' location, X-small separation condition (pattern separation)” value is recorded as “only ghrelin treated rats showed enhanced exploratory behaviour; also recorded: able to distinguish between very similar spatial locations” in test [3] and “improved pattern separation learning” in test [3] (listed as acyl-ghrelin). Moreover, the “SLR task, discrimination of 'novel' location, small separation condition” value in test [3] was “enhanced exploratory behaviour for the ‘novel’ location in the small separation condition; also recorded: able to distinguish similar but distinct spatial locations”. Further, the “total number of new adult-born neurones (BrdU+/NeuN+) in the DG” value was “significantly increased” in test [4], “significantly increased the number of new adult-born neurons” in test [4] (listed as Ghrelin) and “increased the number of new adult born neurons” in test [4] (listed as acyl-ghrelin). Also, the “DG neuroblast number (DCX+)” value in test [4] (14 days after the final injection, data not shown) is given as “remained significantly higher”. For the same substance, in test [5], the food intake result was “increase food intake”.

These data come from patent US20160108135A1, “GHRELIN IN THE DIAGNOSIS OF CNS DISORDERS” (priority 2013, published 2016).
